According to patent publication US11999676B2, “Vesicular monoamine transporter-2 ligands and their use in the treatment of psychostimulant abuse” (priority 2016, dated 2024):
Read-outs that look alike come from different tables or passages of the source.

Assays:
VMAT2 [1] = target: T1, VMAT2 (Rattus norvegicus (Rat), UniProt Q01827); test: [3H]Dopamine ([3H]DA) uptake assay, vesicular preparation; format: biochemical
VMAT2 [2] = target: T1, VMAT2; conditions: rat brain synaptic vesicles; read-out: [3H]DTBZ binding (Ki) VMAT2
[3] = Microsomal stability assay, human liver microsomes; conditions: for CLint scaled at 0.08 µM / half-life at 0.08 µM: both, human, pooled liver microsomes; for CLint scaled at 0.08 µM: pH 7.4, Microsomal stability assays: Clearance; for half-life at 0.08 µM: pH 7.4, Microsomal stability assays: Half-life
Method: Each plate holds triplicate samples of two controls (0.4 mM) and up to 14 compounds (0.08 mM) in rat and human liver microsomes. Aliquots of each well of the plate (175 μl of each well) were transferred from the master plate into 5 assay plates. For 0-hr time point, pre-cooled (4° C.) internal standard (437.5 μL, 2 μM caffeine in methanol) was added to the first plate before the reaction starts. NADPH regenerating system solution A (6.05 ml, Fisher Scientific, #NC9255727) was combined with NADPH regenerating system solution B (1.21 ml, Fisher Scientific, #NC9016235) in potassium phosphate buffer (15.8 ml, 0.1 M, pH 7.4, 37° C.). The resulting NADPH solution (43.8 μl) was added to each well of all the 96-well assay plates and mixed with pipette briefly making the final protein and compound concentrations respectively: 0.5 mg/ml, 0.08 μM (0.4 μM for controls). Plates were sealed, and all plates except the 0-hr plate were incubated at 37° C., shaken at a speed of 60 rpm. A single assay plate was tested at each time point: 0.5 hr, 1 hr, 2 hr, and 4 hr. At each time point, 437.5 μL of pre-cooled internal standard was added each well of the plate to quench the reaction. […] 120 μl supernatant was transferred to a 96-well plate, centrifuged again and analyzed by UPLC-MS (Waters Inc., Milford, MA). The compounds and internal standard were detected by selected ion recording (SIR).
The amount of material was measured as a ratio of peak area to the internal standard and graphed. Using the slope from the initial linear portion of this curve, the degradation rate constant is calculated using equation [1].

hERG channel = hERG channel (Homo sapiens (Human), UniProt Q12809); test: [3H]Dofetilide binding assay, HEK-293 cell membrane preparation; conditions: [3H]dofetilide, HEK-293 cell membranes; read-out: hERG Binding: Mean Ki ± Standard Deviation
Sequence of hERG channel (Q12809 whole entry): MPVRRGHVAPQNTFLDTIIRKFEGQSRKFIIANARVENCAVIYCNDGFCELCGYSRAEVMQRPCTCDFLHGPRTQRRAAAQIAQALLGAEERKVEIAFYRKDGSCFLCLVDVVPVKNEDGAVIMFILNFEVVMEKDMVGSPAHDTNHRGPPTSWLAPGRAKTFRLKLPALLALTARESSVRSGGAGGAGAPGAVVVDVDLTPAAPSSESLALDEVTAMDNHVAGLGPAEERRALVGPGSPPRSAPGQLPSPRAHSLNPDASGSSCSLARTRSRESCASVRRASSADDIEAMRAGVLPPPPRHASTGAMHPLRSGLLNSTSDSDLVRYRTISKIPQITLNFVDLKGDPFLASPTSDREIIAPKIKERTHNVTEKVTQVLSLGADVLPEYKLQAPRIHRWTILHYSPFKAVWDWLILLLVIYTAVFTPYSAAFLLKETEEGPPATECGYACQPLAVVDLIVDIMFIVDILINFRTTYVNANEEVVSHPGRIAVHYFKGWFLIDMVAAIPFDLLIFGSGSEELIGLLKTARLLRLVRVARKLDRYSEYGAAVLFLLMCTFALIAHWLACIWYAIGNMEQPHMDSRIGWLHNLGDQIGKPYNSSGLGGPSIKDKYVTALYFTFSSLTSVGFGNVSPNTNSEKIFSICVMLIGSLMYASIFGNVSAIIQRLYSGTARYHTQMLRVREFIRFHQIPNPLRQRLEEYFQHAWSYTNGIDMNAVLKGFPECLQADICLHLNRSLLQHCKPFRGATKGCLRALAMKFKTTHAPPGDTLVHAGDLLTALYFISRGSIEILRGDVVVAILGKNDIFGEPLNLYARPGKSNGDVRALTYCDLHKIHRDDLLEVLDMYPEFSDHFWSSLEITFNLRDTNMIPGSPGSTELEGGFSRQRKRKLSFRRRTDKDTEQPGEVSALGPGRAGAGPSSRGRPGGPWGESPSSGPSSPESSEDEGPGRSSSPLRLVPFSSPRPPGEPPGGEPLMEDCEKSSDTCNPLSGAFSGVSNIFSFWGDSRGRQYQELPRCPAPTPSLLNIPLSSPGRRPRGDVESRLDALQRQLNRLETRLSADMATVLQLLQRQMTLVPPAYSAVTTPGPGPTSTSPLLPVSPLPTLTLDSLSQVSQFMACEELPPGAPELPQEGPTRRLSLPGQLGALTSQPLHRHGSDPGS
Method: [^3H]Dofetilide binding assays were conducted using commercially available HEK-293 cell membranes which stably express the hERG channel. Membranes were suspended in assay buffer (50 mM Tris, 10 mM KCl, 1 mM MgCl2, pH 7.4) prior to the experiment. […] Aliquots of the HEK-293 cell membrane suspension which contained 5 μg membrane protein were added to tubes containing assay buffer, 5 nM [^3H]dofetilide and a range of concentrations of analog (10 nM-100 μM). Nonspecific binding was determined in the presence of amitriptyline (1 mM). Samples were incubated for 1 hr. at 24° C., followed by rapid filtration. […] The affinity for the [^3H]dofetilide binding site on the hERG channel expressed in the HEK-293 cellular membrane was determined from the analog concentration response curves.

[4] = Microsomal stability assay, rat liver microsomes; conditions: female, Sprague-Dawley, rat, liver microsomes
[5] = rat striatal synaptic vesicles, read-out: [3H]DA uptake (Ki) VMAT2
[6] = [3H]DA uptake, rat, read-out: VMAT2 (rat) Inhibition: Mean Ki ± Standard Deviation

Structure (SMILES)	Ki (VMAT2 [1]; [5])	Ki (VMAT2 [2])	CLint scaled at 0.08 µM [3]	half-life at 0.08 µM [3]	Ki (VMAT2 [1]; [6])	Ki (hERG channel)	also measured
CC(Cc1ccccc1)NCCc1ccccc1 (stereo not drawn) [Compound 1]	63 ± 5 nM	7700 ± 1250 nM					
CC(Cc1ccccc1)N(C)CCc1ccccc1 (stereo not drawn) [Compound 2]	510 ± 100 nM	7530 ± 2160 nM					
CC(Cc1ccc(Br)cc1)NCCc1ccccc1 (stereo not drawn) [Compound 3]	33 ± 7 nM	1230 ± 130 nM					
CC(Cc1ccccc1)NCCCc1ccccc1 (stereo not drawn) [Compound 4]	7 ± 2 nM	1130 ± 310 nM					
C[C@H](Cc1ccccc1)NCCCc1ccccc1 [Compound 5]	6 ± 1 nM	910 ± 590 nM					
C[C@@H](Cc1ccccc1)NCCCc1ccccc1 [Compound 6]	65 ± 4 nM	750 ± 140 nM					
CC(Cc1ccccc1)N(C)CCCc1ccccc1 (stereo not drawn) [Compound 7]	96 ± 10 nM	1560 ± 470 nM					
COc1ccc(CCCNC(C)Cc2ccccc2)cc1 (stereo not drawn) [Compound 8]	14 ± 3 nM	2200 ± 110 nM					
CC(Cc1ccc(Br)cc1)NCCCc1ccccc1 (stereo not drawn) [Compound 11]	8 ± 1 nM	700 ± 63 nM					
CC(Cc1ccc(Br)cc1)NCCCCc1ccccc1 (stereo not drawn) [Compound 14]	3 ± 0.3 nM	81 ± 16 nM					
CC(Cc1ccccc1)NCCCCc1ccccc1 (stereo not drawn) [Compound 15]	3 ± 2 nM	190 ± 20 nM					
COc1ccc(CCCNC(C)Cc2ccc(Br)cc2)cc1 (stereo not drawn) [Compound 16]	12 ± 3 nM	460 ± 80 nM					
CC(Cc1ccccc1)NCCCCCc1ccccc1 (stereo not drawn) [Compound 17]	14 ± 1 nM	630 nM					
CC(Cc1ccccc1)NCCOc1ccccc1 (stereo not drawn) [Compound 19]	59 ± 7 nM	4100 ± 300 nM					
CC(Cc1ccc(Br)cc1)NCCOc1ccccc1 (stereo not drawn) [Compound 20]	13 ± 9 nM	2000 ± 100 nM					
CC(Cc1ccccc1)NCCc1ccc(O)cc1 (stereo not drawn) [Compound 21]	120 ± 10 nM	1500 ± 200 nM					
CC(Cc1ccccc1)NCCc1ccc(OCc2ccccc2)c(OCc2ccccc2)c1 (stereo not drawn) [Compound 22]	120 ± 1 nM	2000 ± 100 nM					
CC(Cc1ccccc1)NCCc1ccc(O)c(O)c1 (stereo not drawn) [Compound 23]	92 ± 17 nM	3400 ± 600 nM					
COc1ccc(CC(C)NCCc2ccccc2)cc1 (stereo not drawn) [Compound 24]	74 ± 2 nM	3770 ± 990 nM					
COc1ccc(CC(C)N(C)CCc2ccccc2)cc1 (stereo not drawn) [Compound 25]	460 ± 75 nM	11900 ± 1840 nM					
COc1ccc(CC(C)NCCCc2ccccc2)cc1 (stereo not drawn) [Compound 26]	22 ± 3 nM	1270 ± 90 nM					

Structure (SMILES)	Ki (VMAT2 [1]; [5])	Ki (VMAT2 [2])	CLint scaled at 0.08 µM [3]	half-life at 0.08 µM [3]	Ki (VMAT2 [1]; [6])	Ki (hERG channel)	also measured
COc1ccc(CCCNC(C)Cc2ccc(OC)cc2)cc1 (stereo not drawn) [Compound 29]	11 ± 2 nM	410 ± 140 nM					
COc1ccc(CC(C)N(C)CCCc2ccccc2)cc1 (stereo not drawn) [Compound 30]	270 ± 38 nM	7110 ± 820 nM					
COc1ccc(CCC(C)NCCc2ccccc2)cc1 (stereo not drawn) [Compound 31]	62 ± 29 nM	2400 ± 100 nM					
COc1ccc(CCC(C)NCCCc2ccccc2)cc1 (stereo not drawn) [Compound 32]	30 ± 2 nM	4700 ± 400 nM					
COc1ccc(CCNC(C)CCc2ccc(OC)cc2)cc1 (stereo not drawn) [Compound 33]	60 ± 7 nM	1500 ± 200 nM					
COc1ccc(CCC(C)NCCc2ccc(Br)cc2)cc1 (stereo not drawn) [Compound 34]	10 ± 4 nM	870 ± 30 nM					
CC(Cc1ccc(O)cc1)NCCc1ccccc1 (stereo not drawn) [Compound 35]	47 ± 6 nM	2600 ± 400 nM					
COc1ccc(CCCNC(C)Cc2ccc(O)cc2)cc1 (stereo not drawn) [Compound 36]	72 ± 30 nM	230 ± 60 nM					
CC(Cc1ccc(O)cc1)NCCCc1ccccc1 (stereo not drawn) [Compound 37]	33 ± 8 nM	820 ± 270 nM					
CC(Cc1ccc(F)cc1)NCCc1ccccc1 (stereo not drawn) [Compound 38]	69 ± 9 nM	2500 ± 1600 nM					
CC(Cc1ccc(F)cc1)NCCCc1ccccc1 (stereo not drawn) [Compound 39]	10 ± 0.2 nM	1300 ± 300 nM					
COc1ccc(CCCNC(C)Cc2ccc(F)cc2)cc1 (stereo not drawn) [Compound 40]	17 ± 3 nM	1700 ± 400 nM					
CC(Cc1ccc([N+](=O)[O-])cc1)NCCc1ccccc1 (stereo not drawn) [Compound 41]	60 ± 7 nM	5100 ± 1200 nM					
CC(Cc1ccc([N+](=O)[O-])cc1)NCCCc1ccccc1 (stereo not drawn) [Compound 42]	13 ± 4 nM	2000 ± 300 nM					
COc1ccc(CCCNC(C)Cc2ccc([N+](=O)[O-])cc2)cc1 (stereo not drawn) [Compound 43]	8 ± 2 nM	1400 ± 400 nM					
CC(Cc1ccc(N)cc1)NCCc1ccccc1 (stereo not drawn) [Compound 44]	210 ± 80 nM	17000 nM					
CC(Cc1ccc(F)cc1)NCCCc1ccc(NC=O)cc1 (stereo not drawn) [Compound 70]			23 mL/min/kg	54 min	22.5 ± 4.48 nM	2600 ± 711 nM	
CC(Cc1ccc(NC=O)cc1)NCCCc1ccccc1 (stereo not drawn) [Compound 77]			11.2 mL/min/kg	114 min	21 ± 1.1 nM	1760 ± 630 nM	
CC(Cc1ccc(NC=O)cc1)NCCCc1ccc(F)cc1 (stereo not drawn) [Compound 88]			13.4 mL/min/kg	96 min	12.7 ± 2.85 nM	738 ± 244 nM	
CC(Cc1ccc(NC=O)cc1)NCCCc1ccc(F)cc1 (stereo not drawn) [Compound 89]					12.7 ± 2.85 nM	738 ± 244 nM	Microsomal stability assays: Clearance [3]: 14 mL/min/kg; Microsomal stability assays: Half-life [3]: 1.5 h
CC(Cc1ccc(N)cc1)NCCCc1ccccc1 (stereo not drawn) [Compound 105]			29.6 mL/min/kg	42 min	26.8 ± 6.49 nM	4610 ± 1010 nM	

Structure (SMILES)	Ki (VMAT2 [1]; [5])	Ki (VMAT2 [2])	CLint scaled at 0.08 µM [3]	half-life at 0.08 µM [3]	Ki (VMAT2 [1]; [6])	Ki (hERG channel)	also measured
CC(Cc1ccc(N)cc1)NCCCc1ccc(F)cc1 (stereo not drawn) [Compound 109]			25.2 mL/min/kg	48 min	19.2 ± 4.43 nM	2590 ± 792 nM	
CC(Cc1ccc(N)cc1)NCCCc1ccc(F)cc1 (stereo not drawn) [Compound 112]					16.7 ± 3.34 nM	2500 ± 435 nM	Microsomal stability assays: Clearance [3]: 23.5 mL/min/kg; Microsomal stability assays: Half-life [3]: 0.9 h
CC(Cc1ccc([N+](=O)[O-])cc1)NCCCc1ccccc1 (stereo not drawn) [Compound 115]			< 5.2 mL/min/kg	> 240 min	19 ± 3.81 nM	285 ± 78.8 nM	
CC(Cc1ccc([N+](=O)[O-])cc1)NCCCc1ccc(F)cc1 (stereo not drawn) [Compound 118]			< 5.2 mL/min/kg	> 240 min	7.08 ± 1.29 nM	206 ± 137 nM	
CC(Cc1ccc([N+](=O)[O-])cc1)NCCCc1ccc(F)cc1 (stereo not drawn) [Compound 120]					9.85 ± 1.62 nM	130 ± 25.6 nM	Microsomal stability assays: Clearance [3]: <5.20 mL/min/kg; Microsomal stability assays: Half-life [3]: >4 h
CC(Cc1ccc([N+](=O)[O-])cc1)NCCCc1ccc(Br)cc1 (stereo not drawn) [Compound 121]			< 5.2 mL/min/kg	> 240 min	13.4 ± 4.8 nM	80 ± 67.7 nM	
CC(Cc1ccc(F)cc1)NCCCc1ccccc1 (stereo not drawn) [Compound 126]			11.5 mL/min/kg	108 min	19.3 ± 5.14 nM	2050 ± 773 nM	
CC(Cc1ccc(F)cc1)NCCCc1ccc(Br)cc1 (stereo not drawn) [Compound 146]			< 5.2 mL/min/kg	> 240 min	22.1 ± 6.5 nM	546 ± 199 nM	
CC(Cc1ccc(F)cc1)NCCCc1ccnc2ccccc12 (stereo not drawn) [Compound 162]			102 mL/min/kg	12 min	30.5 ± 8.59 nM	2950 ± 1360 nM	
CC(Cc1ccc(C(F)(F)F)cc1)NCCCc1ccncc1 (stereo not drawn) [Compound 165]			< 5.2 mL/min/kg	> 240 min	53.2 ± 6.5 nM	1890 ± 639 nM	
CC(Cc1ccc(F)cc1)NCCCc1ccc(-c2ccnn2C)cc1 (stereo not drawn) [Compound 166]			34.3 mL/min/kg	36 min	46.5 ± 8.97 nM	2200 ± 251 nM	
CC(Cc1ccncc1)NCCCc1ccc(Br)cc1 (stereo not drawn) [Compound 168]			6 mL/min/kg	210 min	41 ± 11.1 nM	1780 ± 468 nM	
CC(Cc1ccncc1)NCCCc1ccc(F)cc1 (stereo not drawn) [Compound 186]			4.3 mL/min/kg	288 min	72.4 ± 29.8 nM	3320 ± 1930 nM	
CC(Cc1ccc(F)cc1)NCCCc1ccc(Cl)cc1 (stereo not drawn) [Compound 188]			4.7 mL/min/kg	264 min	22 ± 7.72 nM	467 ± 280 nM	
CC(Cc1ccc(F)cc1)NCCCc1ccc(F)cc1 (stereo not drawn) [Compound 190]			5.4 mL/min/kg	234 min	8.28 ± 0.736 nM	789 ± 221 nM	
CC(Cc1ccccc1)NCCCc1ccncc1 (stereo not drawn) [Compound 204]			5.8 mL/min/kg	216 min	49.1 ± 3.51 nM	8460 ± 4580 nM	
CC(Cc1ccccc1)NCCCc1ccc(I)cc1 (stereo not drawn) [Compound 213]					22.2 ± 2.21 nM	642 ± 168 nM	Microsomal stability assays: Clearance [3]: <5.20 mL/min/kg; Microsomal stability assays: Half-life [3]: >4 h
CC(Cc1ccccc1)NCCCc1ccc(I)cc1 (stereo not drawn) [Compound 214]					6.86 ± 1.81 nM	3040 ± 1370 nM	Microsomal stability assays: Clearance [3]: 17.6 mL/min/kg; Microsomal stability assays: Half-life [3]: 1.2 h
CC(Cc1ccccc1)NCCCc1ccc(Br)cc1 (stereo not drawn) [Compound 218]			9.5 mL/min/kg	132 min	14.2 ± 2.17 nM	421 ± 38.1 nM	
CC(Cc1ccccc1)NCCCc1ccc([N+](=O)[O-])cc1 (stereo not drawn) [Compound 222]					4.97 ± 3.08 nM	96.1 ± 28.3 nM	CLint scaled at 0.08 µM ([4]; pH 7.4, Microsomal stability assays: Clearance): > 400 mL/min/kg; half-life at 0.08 µM ([4]; pH 7.4, Microsomal stability assays: Half-life): < 6 min
